Molecules are shown by their SMILES.

Test in all cases: microbe, parasite or virus in culture
Holding throughout (assay type): cell-based, SARS-CoV-2

The test system of assay [1] is pseudovirus carrying spike protein of the omicron variant. The note with it: read-out: EC50 (nM) (Omicron).
The test system of assay [2] is pseudovirus carrying spike protein of the beta variant. The note with it: read-out: EC50 (nM) (Beta).
Assay [3] relates to pseudovirus carrying spike protein of the delta variant. Particulars: read-out: EC50 (nM) (Delta).
For assay [4], the system named is pseudoviruses carrying spike proteins of different variants. The note with it: Severe acute respiratory syndrome coronavirus 2, read-out: EC50 values against different variants (span).
In assay [5] the test system is pseudovirus carrying spike protein of the alpha variant. Particulars: read-out: EC50 (nM) (Alpha).

As for `C[C@@H]1CCO[C@H]2Cn3cc(C(=O)NCc4ccc(F)cc4F)c(=O)c(O)c3C(=O)N12` [Dolutegravir sodium], the EC50 was 2.6 nM in assay [1]; 10.2 nM in assay [2]; 3 nM in assay [3]; 10.2 to 22.9 nM in assay [4]; 15.8 nM in assay [5].

Take `Cc1cc(C#N)cc(C)c1Oc1nc(Nc2ccc(C#N)cc2)nc(N)c1Br` [Etravirine]: the EC50 is 3 nM in assay [1]; 4.5 nM in assay [2]; 2.9 nM in assay [3]; 4.5 to 5.8 nM in assay [4]; 4.9 nM in assay [5].

For the origin of these results see article PMC8999638, “Identification of Entry Inhibitors against Delta and Omicron Variants of SARS-CoV-2” (International Journal of Molecular Sciences, 2022).
